Source: article PMC3757052, “Molecular Cloning and Characterization of Novel Glutamate-Gated Chloride Channel Subunits from Schistosoma mansoni” (PLoS Pathogens, 2013)

How the values were obtained:
Test in all cases: two-electrode voltage clamp in Xenopus oocytes
Assay type in all cases: cell-based
[1] = biological target: T1, SmGluCl-1 (Schistosoma mansoni, UniProt G4VR43)
T1 construct: full-length subunit co-expressed 1:1 with SmGluCl-2.1 (heteromer; no functional SmGluCl-1 homomer); with SmGluCl-2.1
T1 sequence (T2C5A6 entry or part of it): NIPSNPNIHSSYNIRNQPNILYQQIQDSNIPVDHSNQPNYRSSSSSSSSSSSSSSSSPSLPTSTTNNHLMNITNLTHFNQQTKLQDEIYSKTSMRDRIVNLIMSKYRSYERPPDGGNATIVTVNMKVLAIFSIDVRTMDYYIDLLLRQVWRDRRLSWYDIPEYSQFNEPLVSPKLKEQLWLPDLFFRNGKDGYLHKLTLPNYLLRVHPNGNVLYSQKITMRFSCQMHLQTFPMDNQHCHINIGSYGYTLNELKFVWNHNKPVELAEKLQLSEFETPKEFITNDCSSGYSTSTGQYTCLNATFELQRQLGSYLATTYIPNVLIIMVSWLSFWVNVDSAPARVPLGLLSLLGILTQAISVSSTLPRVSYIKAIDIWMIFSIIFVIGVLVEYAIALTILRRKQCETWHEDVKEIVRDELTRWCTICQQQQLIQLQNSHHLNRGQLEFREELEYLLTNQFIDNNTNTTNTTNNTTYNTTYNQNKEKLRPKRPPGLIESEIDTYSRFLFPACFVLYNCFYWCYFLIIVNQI
T1 sequence (G4VR43 entry or part of it): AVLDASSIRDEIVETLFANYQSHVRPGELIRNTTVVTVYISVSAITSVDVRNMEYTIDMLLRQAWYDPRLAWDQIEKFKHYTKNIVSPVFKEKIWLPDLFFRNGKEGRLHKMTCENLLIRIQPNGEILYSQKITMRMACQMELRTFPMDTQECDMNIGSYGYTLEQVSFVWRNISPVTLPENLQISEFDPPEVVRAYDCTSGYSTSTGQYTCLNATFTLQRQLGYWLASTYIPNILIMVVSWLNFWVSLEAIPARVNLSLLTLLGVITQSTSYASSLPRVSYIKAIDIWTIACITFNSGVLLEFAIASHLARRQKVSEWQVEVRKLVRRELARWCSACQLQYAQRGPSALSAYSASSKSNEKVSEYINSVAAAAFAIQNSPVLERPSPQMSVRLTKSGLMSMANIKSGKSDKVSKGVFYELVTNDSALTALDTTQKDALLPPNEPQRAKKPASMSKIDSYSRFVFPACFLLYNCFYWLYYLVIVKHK

[2] = biological target: T2, SmGluCl-3 (Schistosoma mansoni, UniProt T2C5W6)
T2 construct: gene GluCl; full-length subunit, homomeric receptor (KC861384)
T2 sequence (T2C5W6 entry or part of it): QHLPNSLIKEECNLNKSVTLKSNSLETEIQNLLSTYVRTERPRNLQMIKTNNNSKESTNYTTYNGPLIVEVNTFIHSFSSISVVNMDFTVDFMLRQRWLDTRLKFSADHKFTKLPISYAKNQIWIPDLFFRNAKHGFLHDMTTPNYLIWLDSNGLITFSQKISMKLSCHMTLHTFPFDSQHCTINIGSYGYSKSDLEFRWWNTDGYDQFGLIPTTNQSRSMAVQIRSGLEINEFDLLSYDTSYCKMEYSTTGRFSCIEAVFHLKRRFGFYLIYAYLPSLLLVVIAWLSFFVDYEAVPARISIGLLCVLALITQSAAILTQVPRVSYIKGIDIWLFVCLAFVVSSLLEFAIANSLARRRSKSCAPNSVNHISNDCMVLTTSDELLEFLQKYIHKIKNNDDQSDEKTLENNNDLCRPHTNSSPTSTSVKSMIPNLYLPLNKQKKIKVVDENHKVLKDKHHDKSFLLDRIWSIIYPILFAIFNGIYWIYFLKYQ

[3] = biological target: T3, SmGluCl-2.1 (SmGluCl-2) (Schistosoma mansoni, UniProt T2C5A6)
T3 construct: gene GluCl; full-length subunit isoform 1, homomeric receptor (KC861382)
T3 sequence (T2C5A6 entry or part of it): as the sequence (T2C5A6 entry or part of it) above

Structure (SMILES): N[C@@H](CCC(=O)O)C(=O)O [L-glutamate]
- EC50 [1]: 26.3 ± 2 µM
- EC50 [2]: 6.9 ± 0.5 µM
- EC50 [3]: 11.8 ± 0.6 µM
